Results on seven molecules are retold here after patent US10889579B2, “Thiazine derivatives as β-secretase inhibitors and methods of use” (AMGEN INC., priority 2016, dated 2021).

As usually defined, the IC50 is the concentration needed to halve the response being measured.

For series [1], the system named is Aβ peptide levels in the CSF and plasma. As to conditions: nonhuman primates; cited from earlier work.
The conditions of series [2]: repeated doses up to 200 mg, phase I clinical trial; cited from earlier work.
The subject of series [3] is pigment epithelium of the rat's eye. The settings on record: higher compound dose given for three months; cited from earlier work.
Series [4] has as its system CSF Aβ peptide concentrations. As to conditions: sustained and dose-dependent manner; cited from earlier work.
The conditions of series [5]: phase I clinical trials; cited from earlier work.
Series [6] concerns the target T1, BACE1 (Homo sapiens (Human), UniProt P56817). Kind of series: In vitro enzymatic BACE1 FRET assay. In kind it is biochemical. The settings on record: pH 4.5, 1 h pre-incubation, read-out: BACE1 Enzyme IC50. As for the experimental part:
(§1) In Vitro Enzymatic BACE1 and BACE2 FRET (Fluorescence Resonance Energy Transfer) Assays
(§2) The cDNAs for both human recombinant BACE1 and 2 with C-terminal 6-His Tags were cloned into transient protein expression vectors, which were subsequently transfected into mammalian cell lines. These recombinant proteins were further purified using Ni-NTA affinity chromatography (Qiagen). The assay buffer used in these screens was 0.05 M acetate, pH 4.5, 8% DMSO final, 100 μM genapol (which is a nonionic detergent, below its Critical Micelle Concentration). The β-secretase enzyme (0.02 nM for BACE1 and 0.64 nM for BACE2), which was pre-incubated for one hour with the test compound, typically in about luL of DMSO according to a serial dilution, was added thereto. The assay was effectively started by the addition of FRET substrate (50 nM) and the combination was incubated for one hour. The FRET assay was terminated by the addition of tris buffer, which raised the pH to neutrality, and the fluorescence was determined. The FRET substrate was a peptide with commercially available fluorophore and quencher, on opposite sides of the BACE cleavage site. The specific FRET substrate used in this assay was made by Amgen in-house. Commercially available FRET substrates, for example, the FRET substrate offered with the BACE1 FRET Assay Kit sold by ThermoFisher Scientific (Catalog Number P2985), may be used in this assay with the appropriate modifications, which are within the purview of the ability of a person with ordinary skill in the art. Proteolytic cleavage of the FRET substrate released quenching of fluorescence (excitation 488 nm and emission 590 nm).
Target sequence in this assay (P56817 46-501): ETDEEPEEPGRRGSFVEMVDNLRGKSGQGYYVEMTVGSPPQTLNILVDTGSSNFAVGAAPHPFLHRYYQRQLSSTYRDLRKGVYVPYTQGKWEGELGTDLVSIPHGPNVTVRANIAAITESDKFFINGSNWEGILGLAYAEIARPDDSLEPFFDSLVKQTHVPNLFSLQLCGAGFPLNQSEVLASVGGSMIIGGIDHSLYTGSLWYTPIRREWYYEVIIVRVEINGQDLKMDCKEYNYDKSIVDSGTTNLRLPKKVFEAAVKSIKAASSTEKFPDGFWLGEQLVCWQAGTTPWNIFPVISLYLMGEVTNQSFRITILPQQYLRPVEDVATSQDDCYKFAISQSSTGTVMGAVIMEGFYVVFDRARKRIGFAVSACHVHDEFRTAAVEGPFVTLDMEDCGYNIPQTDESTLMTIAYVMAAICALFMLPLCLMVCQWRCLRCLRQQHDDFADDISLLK

Series [7] concerns the target T1, BACE1. Put plainly: In vitro BACE1 cell-based assay (Aβ40 in conditioned medium, HTRF). The settings on record: Aβ40 in conditioned medium of cells stably expressing APP, 24 h. As for the experimental part: In Vitro BACE1 Cell-Based Assay
The cell-based assay measures inhibition or reduction of Aβ40 in conditioned medium of test compound treated cells expressing amyloid precursor protein. Cells stably expressing Amyloid Precursor Protein (APP) were plated at a density of 45K cells/well in 384 well plates (Corning/BioCoat 354663). The test compounds were then added to cells in 22-point dose response concentrations with the starting concentration being 62.5 μM. The compounds were diluted from stock solutions in DMSO and the final DMSO concentration of the test compounds on cells was 0.625%. The cells were cultivated overnight at 37° C. and 5% CO2 in DMEM supplemented with 10% FBS. After 24 h of incubation with the test compounds, the conditioned media was collected and the Aβ40 levels were determined using HTRF (Homogeneous Time Resolved Fluorescence). The IC50 of the compound was calculated from the percent of control or percent inhibition of Aβ 40 as a function of the concentration of the test compound.
The HTRF to detect Aβ40 was performed in 384 well plates (Costar 3658). The antibody pair that were used to detect Aβ 40 from cell supernatants were ConfAb40 antibody (Amgen in-house) and biotinylated 6E10 (BIOLEGEND). As an alternative to ConfAb40, a commercially available antibody, Anti-beta Amyloid 1-40 antibody [BDI350] from Abcam, Cambridge, Mass. 02139-1517 (Product code: ab20068), may be used in this assay. The concentrations were 0.35 μg/mL of ConfAb40 antibody and 1.33 μg/mL of 6E10-biotinylated antibody, as well as 4.5 μg/mL of Streptavidin Allophycocyanin Conjugate (ThermoFisher Scientific) in HTRF Buffer (1M Hepes pH 7.5, 1M NaCL, 1% BSA, 0.5% Tween 20).
The conditioned media was incubated with above antibodies and Streptavidin Allophycocyanin Conjugate for 30-60 minutes at 23° C. The final readout was performed on Envision from PerkinElmer.
Target sequence in this assay (P56817 46-501, species assumed): as the sequence (P56817 46-501) above
Background: TR-FRET usually uses a lanthanide donor and a delayed reading to cut background.

The target of the next series is human recombinant BACE2 (Homo sapiens (Human), UniProt Q9Y5Z0). Kind of series: In vitro enzymatic BACE2 FRET assay. As to conditions: pH 4.5, 1 h pre-incubation, read-out: BACE2 Enzyme IC50. The series is classed as biochemical. Here is the method:
as §1, §2

Another series addresses Recombinant CatD (Homo sapiens (Human), UniProt P07339). Kind of series: In vitro enzymatic Cathepsin D (CatD) FRET assay. As to conditions: pH 3.5, 1 h pre-incubation, read-out: Cat D Enzyme IC50. The series is classed as biochemical. As for the experimental part: In Vitro Enzymatic Cathepsin D (CatD) FRET Assay Recombinant CatD was expressed in CHO cells. The assay buffer for CatD was 0.05 M citrate pH 3.5, 10% DMSO final, 5 mM CHAPS. The CatD enzyme (9 nM) was pre-incubated for one hour with inhibitors, typically in about luL of DMSO according to a serial dilution, is added thereto. The assays was effectively started by the addition of different FRET substrates (20 nM for CatD) and the combination was incubated for one hour. The FRET assay was terminated with by addition of tris buffer, which raises the pH to neutrality, and the fluorescence was determined. The FRET substrate was a peptide with commercially available fluorophore and quencher, on opposite sides of the CatD cleavage site. The CatD substrate peptide sequence was based on sequence #1 of Table 1 from Gulnik et al., FEBS Lett. 413(2):379-384 (1997). Proteolytic cleavage of the FRET substrate released quenching of fluorescence (CatD excitation 500 nm and emission 580 nm). The in vitro CatD FRET assay data for each of the Examples is provided in Table 2, conducted by the first procedure described above. […] Thus, with this surprising selectivity profile, the compounds provided herein are believed to minimize, reduce or completely eliminate any risk of retinal atrophy and abnormal development of the eye and of the retinal pigmented epithelium as it relates to the normal function and activity of CatD.

Another series concerns Aβ peptide in CSF. The settings on record: cited from earlier work.
The conditions of series [8]: in vivo; cited from earlier work.

Chain of human recombinant BACE2 (Q9Y5Z0 63-518): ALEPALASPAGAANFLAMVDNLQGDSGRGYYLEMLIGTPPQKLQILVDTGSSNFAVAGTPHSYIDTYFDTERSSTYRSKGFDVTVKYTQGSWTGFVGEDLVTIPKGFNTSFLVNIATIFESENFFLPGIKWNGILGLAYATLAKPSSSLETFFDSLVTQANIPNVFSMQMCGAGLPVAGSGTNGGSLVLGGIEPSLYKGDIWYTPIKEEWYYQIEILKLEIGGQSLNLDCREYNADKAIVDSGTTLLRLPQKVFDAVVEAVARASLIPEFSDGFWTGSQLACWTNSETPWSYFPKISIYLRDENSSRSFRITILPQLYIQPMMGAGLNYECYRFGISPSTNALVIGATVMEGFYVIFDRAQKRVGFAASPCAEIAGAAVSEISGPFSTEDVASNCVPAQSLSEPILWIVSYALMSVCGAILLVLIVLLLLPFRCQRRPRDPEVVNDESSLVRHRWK
Chain of Recombinant CatD (P07339 65-412): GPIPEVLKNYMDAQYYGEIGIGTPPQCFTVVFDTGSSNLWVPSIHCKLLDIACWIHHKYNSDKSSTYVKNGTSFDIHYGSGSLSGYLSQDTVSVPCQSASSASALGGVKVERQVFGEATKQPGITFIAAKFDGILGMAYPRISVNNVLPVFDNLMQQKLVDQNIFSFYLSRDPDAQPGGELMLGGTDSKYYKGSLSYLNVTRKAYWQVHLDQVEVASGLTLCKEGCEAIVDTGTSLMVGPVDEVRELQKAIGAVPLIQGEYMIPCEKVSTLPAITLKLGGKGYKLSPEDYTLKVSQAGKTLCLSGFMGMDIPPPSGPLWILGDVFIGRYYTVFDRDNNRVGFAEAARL

As for `C[C@H]1OC[C@]2(c3cc(NC(=O)c4cnc(C(F)F)cn4)ccc3F)N=C(N)SC[C@H]12` [Example E2609], the “reduction in Aβ peptide levels in the CSF and plasma” value in series [1] is listed as “significant reduction”. Also, the clinical safety entry in series [2] is given as “did not show clinical significant safety concerns”.

Turning to `C[C@@]1(c2cc(-c3cncnc3)c(F)cc2F)CCSC(N)=N1` [LY 2811376], in series [3], the eye toxicity finding result is “damaged the pigment epithelium of the rat's eye”.

Regarding `CN1C(=N)N[C@](C)(c2cc(NC(=O)c3ccc(F)cn3)ccc2F)CS1(=O)=O` [MK-8931], the “CSF Aβ peptide concentrations” value in series [4] was “significantly reduced”. Besides, the safety profile result in [5] is on record as “excellent safety profile with no immediately noticeable side effects”.

For the molecule `C[C@]1(C(=O)N2CCOCC2)C[C@@](C)(c2cc(/C=C(\F)c3ccc(C#N)cn3)ccc2F)N=C(N)S1` [Example 111, 6-((Z)-2-(3-((4S,6R)-2-amino-4,6-dimethyl-6-(morpholine-4-carbonyl)-5,6-dihydro-4H-1,3-thiazin-4-yl)-4-fluorophenyl)-1-fluorovinyl)nicotinonitrile], the IC50 on BACE1 [6] came out at 98 nM; at BACE1 [7], 201 nM; on human recombinant BACE2, 1470 nM; on Recombinant CatD, 300000 nM.

As for `COC(=O)[C@@]1(C)C[C@@](C)(c2cc(/C=C(\F)c3ccc(Cl)cn3)ccc2F)N=C(N)S1` [Example 107, (4S,6R)-methyl 2-amino-4-(5-((Z)-2-(5-chloropyridin-2-yl)-2-fluorovinyl)-2-fluorophenyl)-4,6-dimethyl-5,6-dihydro-4H-1,3-thiazine-6-carboxylate], the IC50 stood at 68 nM on BACE1 [6], 522 nM at BACE1 [7], 90 nM on human recombinant BACE2 and 282000 nM at Recombinant CatD.

With `COC(=O)[C@]1(C)C[C@@](C)(c2cc(/C=C(\F)c3ccc(Cl)cn3)ccc2F)N=C(N)S1` [Example 106, (4S,6S)-methyl 2-amino-4-(5-((Z)-2-(5-chloropyridin-2-yl)-2-fluorovinyl)-2-fluorophenyl)-4,6-dimethyl-5,6-dihydro-4H-1,3-thiazine-6-carboxylate], the IC50 at BACE1 [6] was 54 nM; against BACE1 [7], 215 nM; on human recombinant BACE2, 75 nM; on Recombinant CatD it was 91000 nM.

For the molecule `C[C@@]1(c2cc(NC(=O)c3ccc(C#N)cn3)ccc2F)C=CSC(N)=N1` [JNJ-54861911], the “reduction of Aβ peptide concentrations” value in the series with Aβ peptide in CSF (in vivo) is “dose-dependently reduce Aβ peptide concentrations”. For the same molecule, in the series with Aβ peptide in CSF (oral dose of 95 mg once daily), the “Aβ peptide reduction in CSF” value is reported as “up to 95%”. In addition, the “ability to cross the blood-brain barrier” value in series [8] was “demonstrated an ability to cross the blood-brain barrier”.
